Source: US8518953B2, “Aminopyrimidines useful as inhibitors of protein kinases” (Vertex Pharmaceuticals Incorporated, priority 2007, dated 2013)

Columns and labels:
[1] = tested on: β-catenin dependent TCF/LEF transcriptional activity; experiment: β-Catenin Stabilization Protocol (β-lactamase reporter assay in Jurkat cells); type: cell-based; details: Homo sapiens, 460/530 ratio, read-out: Beta Catenin IC50
Source text: GSK-3 phosphorylation of β-catenin targets it to the proteosome for degradation. Inhibition of GSK-3 results in accumulation of β-catenin in the cytosol of cells which through interaction with the transcription factor TCF/LEF translocates to the nucleus and drives the transcription of Wnt-dependent genes. The assay is designed to determine the level of β-catenin dependent TCF/LEF transcriptional activity in a quantitative manner through the use of a β-lactamase reporter assay in Jurkat cells dosed with a compound.
Jurkat β-catenin cells are starved overnight in assay media (1% FBS, 1× Penstrep, RPMI) in the flask. The next day Jurkat β-catenin cells are seeded in 96 well flat bottom plates at a density of 50,000 cells/well in assay media in a volume of 100 ul. The compound is added to the well at a final DMSO concentration of 0.75% and incubated at 37° C. o/n. The next day, 20 uL of 6×CCF4 dye is added to the wells and incubated at room temperature for 1-2 hours. Plates are read on the Cytofluor 4000 series multiwell plate reader and the 460/530 ratio is determined.

GSK-3β (AA 1-420) = molecular target: T1, GSK-3β (AA 1-420) (Homo sapiens, UniProt P49841); experiment: GSK-3 Inhibition Assay (standard coupled enzyme system); type: biochemical; details: 20 μM ATP, 300 μM peptide, 20 nM GSK-3β, 30° C.
T1 construct: GSK-3β (AA 1-420)
Method: Compounds of the present invention were screened for their ability to inhibit GSK-3β (AA 1-420) activity using a standard coupled enzyme system (Fox et al., Protein Sci. 1998, 7, 2249). Reactions were carried out in a solution containing 100 mM HEPES (pH 7.5), 10 mM MgCl2, 25 mM NaCl, 300 μM NADH, 1 mM DTT and 1.5% DMSO. Final substrate concentrations in the assay were 20 μM ATP (Sigma Chemicals, St Louis, Mo.) and 300 μM peptide (American Peptide, Sunnyvale, Calif.). Reactions were carried out at 30° C. and 20 nM GSK-3β. Final concentrations of the components of the coupled enzyme system were 2.5 mM phosphoenolpyruvate, 300 μM NADH, 30 μg/ml pyruvate kinase and 10 μg/ml lactate dehydrogenase.
An assay stock buffer solution was prepared containing all of the reagents listed above with the exception of ATP and the test compound of the present invention. The assay stock buffer solution (175 μl) was incubated in a 96 well plate with 5 μl of the test compound of the present invention at final concentrations spanning 0.002 μM to 30 μM at 30° C. for 10 min. […] Rates of reaction were obtained using a Molecular Devices Spectramax plate reader (Sunnyvale, Calif.) over 10 min at 30° C. The Ki values were determined from the rate data as a function of inhibitor concentration.

CRMP2 = CRMP2 phosphorylation assay; type: cell-based, rat; details: E16 hippocampal neurons treated for 7 days
Method: GSK-3 phosphorylation regulates CRMP2 which is involved in the control of axon outgrowth and branching (Yoshimura et al. 2005 Cell, Kim et al. 2006 Neuron). Phosphorylation of CRMP2 by GSK-3 reduces CRMP2 binding to microtubules and thereby reduces axon elongation and branching. Conversely, inhibition of GSK-3, especially at levels that selectively affect TYR residue autophosphorylation, enhances these phenotypes. Compounds are tested in E16 rat hippocampal or cortical neurons to determine the ability to increase the level of axonal branching. 1 mg/ml stock of PDL is diluted into 100 μg/ml in DI water. The glass coverslips are coated for at least 1 hour at 37° C. prior to doing the dissection. PDL is aspirated and the plates are rinsed with PBS and air-dried in hood. Cortical or hippocampal lobes are combined with 9 mL of Base media (Neurobasal+Pen/Strep) and put on ice. 1 mL of 10× trypsin solution is added and the mixture is swirled gently. The tissue is then digested via incubation in a 37° C. waterbath for 20 minutes. After 20 minutes, 10 μl/ml DNase (100 μL DNase) is added and the mixture is incubated for another 5 minutes. The cells are spun at 1000 rpm for 1 minute. The enzyme solution is then removed without removing any of the brain fragments sitting on the bottom. […] The cells are counted in a hemacytometer and seeded at 50,000 cells/well in a 12 well plate. […]

T1 sequence (P49841 whole entry, species assumed, the tested form may be a part): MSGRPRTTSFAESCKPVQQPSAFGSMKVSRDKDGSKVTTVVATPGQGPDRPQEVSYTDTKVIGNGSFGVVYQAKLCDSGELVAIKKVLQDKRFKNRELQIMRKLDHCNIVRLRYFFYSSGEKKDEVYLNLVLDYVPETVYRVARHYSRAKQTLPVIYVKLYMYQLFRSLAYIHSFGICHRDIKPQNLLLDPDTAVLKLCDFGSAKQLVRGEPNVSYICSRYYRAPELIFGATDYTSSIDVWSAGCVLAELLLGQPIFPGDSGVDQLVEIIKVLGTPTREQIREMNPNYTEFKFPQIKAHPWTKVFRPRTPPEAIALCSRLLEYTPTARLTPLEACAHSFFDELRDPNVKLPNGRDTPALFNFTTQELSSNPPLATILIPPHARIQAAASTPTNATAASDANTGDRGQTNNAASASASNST

IC50 [1]: 230 nM
Ki (GSK-3β (AA 1-420)): < 5 nM
SMILES: Cc1nc(-c2ccccc2Cl)nc(Nc2n[nH]c3ncc(F)cc23)c1C [Compound I-1, N-(2-(2-chlorophenyl)-5,6-dimethylpyrimidin-4-yl)-5-fluoro-1H-pyrazolo[3,4-b]pyridin-3-amine]
Inhibition of GSK-3 phosphorylation of substrate CRMP-2 (CRMP2): correlated with inhibition of GSK-3 pTYR
